Structures can show the parent of a compound that is named as a salt.
Key:
NaV1.5 = NaV1.5 (Homo sapiens (Human), UniProt Q14524); test: Sodium Influx Assay (Flux), NaV1.5; conditions: read-out: Flux NaV1.5 IC50; Trex HEK293 cells, ANG2 dye; arithmetic mean
NaV1.6 = NaV1.6 (Homo sapiens (Human), UniProt Q9UQD0); test: Sodium Influx Assay (Flux), NaV1.6; conditions: read-out: Flux NaV1.6 IC50; Trex HEK293 cells, ANG2 dye; arithmetic mean
NaV1.1 = NaV1.1 (Homo sapiens (Human), UniProt P35498); test: Sodium Influx Assay (Flux), NaV1.1; type: cell-based; conditions: Trex HEK293 cells, ANG2 dye; arithmetic mean

NaV1.5, sequence (Q14524 other isoform, or with tags, fused parts or gaps): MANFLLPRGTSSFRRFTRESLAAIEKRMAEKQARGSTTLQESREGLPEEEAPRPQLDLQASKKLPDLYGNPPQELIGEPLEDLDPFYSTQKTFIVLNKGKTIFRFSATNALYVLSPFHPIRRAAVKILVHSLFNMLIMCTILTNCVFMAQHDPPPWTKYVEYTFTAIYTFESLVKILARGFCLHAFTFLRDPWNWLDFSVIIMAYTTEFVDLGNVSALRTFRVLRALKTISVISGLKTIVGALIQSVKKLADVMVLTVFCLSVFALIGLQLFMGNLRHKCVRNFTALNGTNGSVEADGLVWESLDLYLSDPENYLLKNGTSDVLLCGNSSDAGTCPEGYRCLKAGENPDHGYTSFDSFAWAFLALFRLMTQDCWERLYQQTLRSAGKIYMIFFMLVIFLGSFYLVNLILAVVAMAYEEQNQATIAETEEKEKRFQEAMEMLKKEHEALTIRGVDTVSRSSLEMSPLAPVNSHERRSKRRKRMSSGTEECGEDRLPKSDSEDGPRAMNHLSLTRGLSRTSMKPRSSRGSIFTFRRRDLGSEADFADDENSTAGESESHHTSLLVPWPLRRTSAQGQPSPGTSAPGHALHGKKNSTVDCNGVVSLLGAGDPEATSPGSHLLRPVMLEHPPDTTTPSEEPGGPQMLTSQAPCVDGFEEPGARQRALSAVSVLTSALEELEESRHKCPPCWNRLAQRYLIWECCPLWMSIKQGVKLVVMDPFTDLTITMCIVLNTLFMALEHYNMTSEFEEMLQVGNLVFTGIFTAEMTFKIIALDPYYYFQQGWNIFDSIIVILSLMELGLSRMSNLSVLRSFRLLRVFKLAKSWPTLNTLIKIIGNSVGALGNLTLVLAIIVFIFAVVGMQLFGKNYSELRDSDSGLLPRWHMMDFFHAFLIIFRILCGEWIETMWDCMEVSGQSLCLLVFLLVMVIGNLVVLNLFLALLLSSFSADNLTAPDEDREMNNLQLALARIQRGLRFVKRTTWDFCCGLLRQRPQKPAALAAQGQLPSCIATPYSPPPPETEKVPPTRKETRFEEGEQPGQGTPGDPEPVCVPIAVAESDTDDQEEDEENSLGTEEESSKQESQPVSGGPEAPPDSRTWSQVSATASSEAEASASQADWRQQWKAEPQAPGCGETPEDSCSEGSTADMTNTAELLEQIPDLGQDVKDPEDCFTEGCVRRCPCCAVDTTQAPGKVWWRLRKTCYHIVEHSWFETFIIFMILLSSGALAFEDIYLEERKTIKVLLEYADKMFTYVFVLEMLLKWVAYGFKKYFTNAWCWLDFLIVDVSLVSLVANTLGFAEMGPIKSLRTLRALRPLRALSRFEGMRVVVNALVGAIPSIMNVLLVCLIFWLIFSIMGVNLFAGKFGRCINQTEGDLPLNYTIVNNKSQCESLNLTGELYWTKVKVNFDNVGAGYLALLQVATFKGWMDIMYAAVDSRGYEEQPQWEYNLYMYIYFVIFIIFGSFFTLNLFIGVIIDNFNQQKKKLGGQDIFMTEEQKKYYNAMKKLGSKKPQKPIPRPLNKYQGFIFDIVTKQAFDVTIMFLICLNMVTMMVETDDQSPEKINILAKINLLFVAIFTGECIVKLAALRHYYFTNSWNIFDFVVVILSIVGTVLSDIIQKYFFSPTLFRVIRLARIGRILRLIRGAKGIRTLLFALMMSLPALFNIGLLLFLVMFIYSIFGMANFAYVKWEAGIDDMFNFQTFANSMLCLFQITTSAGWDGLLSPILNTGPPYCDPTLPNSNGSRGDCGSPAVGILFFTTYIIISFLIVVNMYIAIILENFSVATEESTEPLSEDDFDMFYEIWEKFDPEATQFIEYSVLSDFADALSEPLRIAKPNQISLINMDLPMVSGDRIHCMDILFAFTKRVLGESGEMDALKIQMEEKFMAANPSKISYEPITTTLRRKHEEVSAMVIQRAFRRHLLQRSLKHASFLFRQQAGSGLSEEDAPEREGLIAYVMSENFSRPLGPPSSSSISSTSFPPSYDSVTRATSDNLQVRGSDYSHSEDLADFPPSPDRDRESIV

IC50 (NaV1.6) [µM] | IC50 (NaV1.1) [µM] | SMILES | IC50 (NaV1.5) [µM]
7.02 | 8.81 | CN(c1cc(F)c(S(=O)(=O)Nc2cscn2)cc1Cl)[C@H]1CCN(Cc2ccnc(C(F)(F)F)c2)C1 [Example 185, (S)-5-chloro-2-fluoro-4-(methyl(1-((2-(trifluoromethyl)-pyridin-4-yl)methyl)pyrrolidin-3-yl)amino)-N-(thiazol-4-yl)benzene-sulfonamide] | 22.4
0.464 | 12.4 | O=S(=O)(Nc1nccs1)c1ccc(OC2CCN(Cc3ccccc3F)CC2)c(Cl)c1 [Example 90, 3-chloro-4-(1-(2-fluorobenzyl)piperidin-4-yloxy)-N-(thiazol-2-yl)benzenesulfonamide] | 8.16
0.732 | 4.96 | CN(c1cc(F)c(S(=O)(=O)Nc2nccs2)cc1Cl)[C@H]1CCN(Cc2ccccc2)C1 [Example 39, (S)-4-((1-benzylpyrrolidin-3-yl)(methyl)amino)-5-chloro-2-fluoro-N-(thiazol-2-yl)benzenesulfonamide bis(trifluoroacetic acid) salt] | 13.1
0.587 | 8.9 | Cc1cccc(CN2CC[C@H](N(C)c3cc(F)c(S(=O)(=O)Nc4cscn4)cc3Cl)C2)c1F [Example 191, (S)-5-chloro-2-fluoro-4-((1-(2-fluoro-3-methylbenzyl)-pyrrolidin-3-yl)(methyl)amino)-N-(thiazol-4-yl)benzene-sulfonamide] | 8.21
1.06 | 13.1 | CC[C@H](c1ccccc1)N1CC[C@H](N(C)c2cc(F)c(S(=O)(=O)Nc3cscn3)cc2Cl)C1 [Example 243, 5-chloro-2-fluoro-4-(methyl((S)-1-((R)-1-phenylpropyl)pyrrolidin-3-yl)amino)-N-(thiazol-4-yl)benzenesulfonamide] | 25.7
4.74 | 21.9 | CN(c1cc(F)c(S(=O)(=O)Nc2cscn2)cc1C(F)F)[C@H]1CCN(Cc2ccccc2)C1 [Example 270, (S)-4-((1-benzylpyrrolidin-3-yl)(methyl)amino)-5-(difluoromethyl)-2-fluoro-N-(thiazol-4-yl)benzenesulfonamide formate] | 28.7
3.69 | 5.84 | Cc1c(F)cccc1CN1CC[C@H](N(C)c2cc(F)c(S(=O)(=O)Nc3cscn3)cc2Cl)C1 [Example 220, (S)-5-chloro-2-fluoro-4-((1-(3-fluoro-2-methylbenzyl)pyrrolidin-3-yl)(methyl)amino)-N-(thiazol-4-yl)benzenesulfonamide] | 8.19
3.32 | 5.74 | Cc1ccc(CN2CC[C@H](N(C)c3cc(F)c(S(=O)(=O)Nc4cscn4)cc3Cl)C2)cc1 [Example 201, (S)-5-chloro-2-fluoro-4-(methyl(1-(4-methylbenzyl)pyrrolidin-3-yl)amino)-N-(thiazol-4-yl)benzenesulfonamide] | 15
3.27 | 19.2 | CN(c1cc(F)c(S(=O)(=O)Nc2cscn2)cc1Cl)[C@H]1CCN(Cc2cccc3ccncc23)C1 [Example 186, (S)-5-chloro-2-fluoro-4-((1-(isoquinolin-8-ylmethyl)pyrrolidin-3-yl)(methyl)amino)-N-(thiazol-4-yl)benzene-sulfonamide 2,2,2-trifluoroacetate] | 20.1
0.64 | 0.564 | Cc1cc(S(=O)(=O)Nc2cscn2)c(F)cc1N(C)[C@H]1CCN(Cc2csc(-c3ccccc3)n2)C1 [Example 135, (S)-2-fluoro-5-methyl-4-(methyl(1-((2-phenylthiazol-4-yl)methyl)pyrrolidin-3-yl)amino)-N-(thiazol-4-yl)benzenesulfonamide] | 1.67
0.155 | 4.38 | C[C@@H](c1ccccc1)N1CC[C@H](N(C)c2ccc(S(=O)(=O)Nc3nccs3)cc2Cl)C1 [Example 42, 3-chloro-4-(methyl((S)-1-((S)-1-phenylethyl)pyrrolidin-3-yl)amino)-N-(thiazol-2-yl)benzenesulfonamide] | 9.11
0.858 | 4.6 | O=S(=O)(Nc1cscn1)c1ccc(OC2CCN(Cc3cccc(C(F)F)c3)CC2)c(Cl)c1 [Example 232, 3-chloro-4-((1-(3-(difluoromethyl)benzyl)piperidin-4-yl)oxy)-N-(thiazol-4-yl)benzenesulfonamide formate] | 3.76
1.2 | 7.2 | Cc1ccccc1CN1CCC(Oc2ccc(S(=O)(=O)Nc3nccs3)cc2Cl)CC1 [Example 91, 3-chloro-4-(1-(2-methylbenzyl)piperidin-4-yloxy)-N-(thiazol-2-yl)benzenesulfonamide] | 6.94
8.42 | 7.88 | CN(C)c1ccc(CN2CC[C@H](N(C)c3cc(F)c(S(=O)(=O)Nc4cscn4)cc3Cl)C2)cc1 [Example 199, (S)-5-chloro-4-((1-(4-(dimethylamino)benzyl)pyrrolidin-3-yl)(methyl)amino)-2-fluoro-N-(thiazol-4-yl)benzenesulfonamide] | > 30

Second part, the molecule before the results:

SMILES | IC50 (NaV1.6) [µM] | IC50 (NaV1.1) [µM] | IC50 (NaV1.5) [µM]
CN(c1cc(F)c(S(=O)(=O)Nc2cscn2)cc1Cl)[C@@H]1CN(Cc2ccccc2)CC12CC2 [Example 265, (S)-4-((5-benzyl-5-azaspiro[2.4]heptan-7-yl)(methyl)amino)-5-chloro-2-fluoro-N-(thiazol-4-yl)benzenesulfonamide 2,2,2-trifluoroacetate] | 4.79 | 6.35 | 6.8
Cc1cc(S(=O)(=O)Nc2cscn2)c(F)cc1N(C)[C@H]1CCN(Cc2ccccc2C(F)F)C1 [Example 112, (S)-4-((1-(2-(difluoromethyl)benzyl)-pyrrolidin-3-yl)(methyl)amino)-2-fluoro-5-methyl-N-(thiazol-4-yl)benzenesulfonamide] | 0.773 | 4.6 | 8.19
CCc1c(O[C@H]2CCN(Cc3ccccc3)C2)cc(F)c(S(=O)(=O)Nc2cscn2)c1F [Example 276, (S)-4-((1-benzylpyrrolidin-3-yl)oxy)-3-ethyl-2,6-difluoro-N-(thiazol-4-yl)benzenesulfonamide 2,2,2-trifluoroacetate] | 0.566 | 18.7 | 17.9
Cc1cn(C)c(CN2CC[C@H](N(C)c3cc(F)c(S(=O)(=O)Nc4cscn4)cc3C)C2)n1 [Example 150, (S)-4-((1-((1,4-dimethyl-1H-imidazol-2-yl)methyl)pyrrolidin-3-yl)(methyl)amino)-2-fluoro-5-methyl-N-(thiazol-4-yl)benzenesulfonamide] | 0.954 | > 30 | > 30
Cc1c(N(C)[C@H]2CCN(Cc3cc(F)ccc3F)C2)cc(F)c(S(=O)(=O)Nc2cscn2)c1F [Example 240, (S)-4-((1-(2,5-difluorobenzyl)pyrrolidin-3-yl)(methyl)amino)-2,6-difluoro-3-methyl-N-(thiazol-4-yl)benzenesulfonamide 2,2,2-trifluoroacetate] | 0.093 | 8.06 | 7.46
Cc1cc(S(=O)(=O)Nc2cscn2)c(F)cc1N(C)[C@H]1CCN([C@H]2C[C@H](c3ccccc3)C2)C1 [Example 117, 2-fluoro-5-methyl-4-(methyl((S)-1-((1r,3S)-3-phenylcyclobutyl)-pyrrolidin-3-yl)amino)-N-(thiazol-4-yl)benzenesulfonamide formate] | 1.45 | 2.26 | 3.09
COc1ccccc1CN1CC[C@H](N(C)c2cc(F)c(S(=O)(=O)Nc3cscn3)cc2C)C1 [Example 119, (S)-2-fluoro-4-((1-(2-methoxybenzyl)-pyrrolidin-3-yl)(methyl)amino)-5-methyl-N-(thiazol-4-yl)benzenesulfonamide formate] | 0.368 | 28.8 | 20.2
Cc1cc(S(=O)(=O)Nc2cscn2)c(F)cc1N(C)[C@H]1CCN(Cc2nc(C(F)(F)F)cs2)C1 [Example 152, (S)-2-fluoro-5-methyl-4-(methyl(1-((4-(trifluoromethyl)thiazol-2-yl)methyl)pyrrolidin-3-yl)amino)-N-(thiazol-4-yl)benzenesulfonamide] | 1.7 | 7.21 | 8.91
Cc1cc(S(=O)(=O)Nc2ccon2)c(F)cc1N(C)[C@H]1CCN(Cc2ccccc2)C1 [Example 229, (S)-4-((1-benzylpyrrolidin-3-yl)(methyl)amino)-2-fluoro-N-(isoxazol-3-yl)-5-methylbenzenesulfonamide 2,2,2-trifluoroacetate] | 1.56 | > 30 | > 30
CC1(C)CNCCC1Oc1ccc(S(=O)(=O)Nc2ncns2)cc1Cl (stereo not drawn) [Example 1, 3-chloro-4-((3,3-dimethylpiperidin-4-yl)oxy)-N-(1,2,4-thiadiazol-5-yl)benzenesulfonamide 2,2,2-trifluoroacetate] | 10.3 | > 30 | > 30
CC1(Nc2ccc(S(=O)(=O)Nc3cscn3)cc2Cl)CN(Cc2ccccc2)C1 [Example 255, 4-((1-benzyl-3-methylazetidin-3-yl)amino)-3-chloro-N-(thiazol-4-yl)benzenesulfonamide 2,2,2-trifluoroacetate] | 3.7 | 9.14 | 12.7
Cc1cccc(CN2CC[C@H](N(C)c3ccc(S(=O)(=O)Nc4ncns4)cc3Cl)C2)c1F [Example 34, (S)-3-chloro-4-((1-(2-fluoro-3-methylbenzyl)pyrrolidin-3-yl)(methyl)amino)-N-(1,2,4-thiadiazol-5-yl)benzenesulfonamide 2,2,2-trifluoroacetate] | 0.039 | 19.9 | > 30

Source: patent publication US10246453B2, “Benzenesulfonamide compounds and their use as therapeutic agents” (Xenon Pharmaceuticals Inc., priority 2016, dated 2019)
